According to publication PMC12138827, “Molecular Modeling and In Vitro Evaluation of Thioureas and Arylthioureas as Urease Inhibitors” (ACS Omega, 2025):
“And” between values parts separate entries of the source, which are not always exact repeats. Identical values can stand only once. “Also recorded” adds a separate entry of the source. Like-named read-outs stand apart in the source and are kept apart here. Marks after values point to notes of the source that are not given here.

Experiments:
[1] = molecular target: T1, C. ensiformis urease (CEU) (Canavalia ensiformis, UniProt P07374); test: biochemical; details: triplicate; for inhibition at 2000 µM: read-out: %I ± SD (inhibitory percentage against CEU), test substance at 2.00 mM; for %I ± SD (inhibitory percentage against CEU): test substance at 2.00 mM; for IC50: 0.2-2.0 mM
T1 construct: purchased Merck (Sigma-Aldrich) Jack bean type III (CAS 9002-13-5)
T1 sequence (P07374 whole entry, looked up): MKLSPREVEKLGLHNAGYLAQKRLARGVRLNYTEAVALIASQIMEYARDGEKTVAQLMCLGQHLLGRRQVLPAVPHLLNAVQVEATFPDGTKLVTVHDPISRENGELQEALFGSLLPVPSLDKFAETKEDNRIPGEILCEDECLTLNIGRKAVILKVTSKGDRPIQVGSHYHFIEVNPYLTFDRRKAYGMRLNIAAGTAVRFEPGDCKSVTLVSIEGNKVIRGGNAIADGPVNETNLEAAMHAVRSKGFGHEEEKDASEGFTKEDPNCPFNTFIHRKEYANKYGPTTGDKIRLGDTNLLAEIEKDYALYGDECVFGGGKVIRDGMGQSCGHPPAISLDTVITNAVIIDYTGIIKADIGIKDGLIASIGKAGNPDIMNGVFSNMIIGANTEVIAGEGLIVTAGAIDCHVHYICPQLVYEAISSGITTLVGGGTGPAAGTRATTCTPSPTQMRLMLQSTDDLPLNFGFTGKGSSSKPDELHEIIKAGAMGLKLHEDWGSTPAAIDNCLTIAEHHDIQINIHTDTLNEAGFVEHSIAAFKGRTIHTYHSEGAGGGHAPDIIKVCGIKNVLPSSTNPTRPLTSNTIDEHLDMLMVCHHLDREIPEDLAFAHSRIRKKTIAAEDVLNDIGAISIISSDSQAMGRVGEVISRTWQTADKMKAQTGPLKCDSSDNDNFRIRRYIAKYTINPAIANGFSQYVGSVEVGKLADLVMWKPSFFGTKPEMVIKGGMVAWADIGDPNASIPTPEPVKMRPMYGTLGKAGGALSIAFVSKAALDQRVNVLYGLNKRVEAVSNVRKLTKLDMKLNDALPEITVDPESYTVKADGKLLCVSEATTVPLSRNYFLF
Description: The in vitro inhibitory activity of C. ensiformis urease was conducted using the indophenol reaction, also known as the Berthlot Reaction. Commercially purchased urease from Merck (Sigma-Aldrich), Jack bean type III (CAS 9002–13–5), was utilized, and the methodology was adapted from Khan et al. (2017).
(§1) The assays were performed in triplicate on a 96-well plate, as described by our research group. , The procedure involved adding 100 μL of urea (10 mM), 55.0 μL of sodium phosphate buffer solution (100 mM, pH 7.4) supplemented with EDTA (1 mM), and 10 μL of the test substance at 2.00 mM for inhibition percentage assays, previously dissolved in methanol. Subsequently, 25.0 μL of urease enzyme solution (0.0035 mM) was added, and the reaction mixture was incubated at 45–50 °C for 30 min. After incubation, 40.0 μL of phenol reagent (1% phenol and 0.05% sodium nitroprusside) and 40.0 μL of alkaline reagent (1.0% NaOH and […]) were added. The reaction rested for 15 min, and the absorbance was read at 630 nm using a Loccus model LMR-96i UV–visible microplate reader.
Thiourea (2.00 mM) served as the standard inhibitor.
To determine half of the maximum inhibitory concentration (IC50), substances LaSMMed 42, LaSMMed 122–126, and the thiourea control were tested at different concentrations (0.2, 0.4, 0.8, 1.0, 1.4, and 2.0 mM). The IC50 values were calculated using GraphPad Prism 8.0.2, employing a dose–response curve.

[2] = Solubility under the urease assay conditions; format: physicochemical; details: urease assay medium
Description: as §1

[3] = molecular target: T1, C. ensiformis urease (CEU); test: Enzyme kinetics on C. ensiformis urease (Michaelis–Menten, Lineweaver–Burk plots); format: biochemical; details: for Vmax: CEU kinetic parameter with the compound; for Ki: Lineweaver–Burk, compound 0.50 and 0.25 mM; for Alfa (α): mixed inhibitors; for Inhibition type (mechanism of action): Lineweaver–Burk plots
Description: Enzyme kinetics were studied following previous work by our research group. , The same reaction mixture was applied to determine inhibitory activity, and the IC50 was adopted to study enzyme kinetics in C. ensiformis urease. However, only two concentrations of the test substance were used (0.50 and 0.25 mM), along with five different concentrations of urea substrate (0.66, 1.00, 1.50, 2.00, and 2.50 mM) for each sample. The absorbance of the reaction mixture was recorded at 630 nm using a Loccus model LMR-96i UV–visible microplate reader. Michaelis–Menten (nonlinear regression) and Lineweaver–Burk (linear regression) plots, as well as the determination of inhibition constants (K i ), K m, α, and V max, were made using GraphPad Prism software (version 8.0.2). Enzymatic activity was calculated using an ammonium chloride calibration curve. One unit of enzymatic activity (U) is the amount of enzyme capable of releasing 1 μmol of ammonia per minute of reaction (U = 1 μmol NH4 ^+ min^–1 μmol enzyme^–1). The assays were performed in triplicate.

CNC(=S)NC(=O)/C=C/c1ccccc1 [LaSMMed 37]
inhibition at 2000 µM [1]: 30 to 40% | %I ± SD (inhibitory percentage against CEU) [1]: 33.53 ± 1.06^c %

CCCCCCNC(=S)NC(=O)/C=C/c1ccccc1 [LaSMMed 40]
%I ± SD (inhibitory percentage against CEU) [1]: 39.34 ± 1.72^c %

NC(=S)NC(=O)/C=C/c1ccccc1 [LaSMMed 42]
inhibition at 2000 µM [1]: 82% | %I ± SD (inhibitory percentage against CEU) [1]: 82.37 ± 0.34^d %

COc1ccc(NC(=S)NC(=O)/C=C/c2ccccc2)cc1 [LaSMMed 44]
Solubility under the tested conditions [2]: insoluble

O=C(/C=C/c1ccccc1)NC(=S)Nc1ccc(F)cc1 [LaSMMed 45]
inhibition at 2000 µM [1]: 24% | %I ± SD (inhibitory percentage against CEU) [1]: 23.98 ± 1.44^e %

Cc1ccc(NC(=S)NC(=O)/C=C/c2ccccc2)cc1 [LaSMMed 46]
%I ± SD (inhibitory percentage against CEU) [1]: 13.04 ± 2.46^f %

NC(=S)Nc1ccc(Cl)cc1 [LaSMMed 122]
IC50 ([1]; IC50 ± SD): ~575 µM and 575 µM | inhibition at 2000 µM [1]: 87.6 ± 1.72% | Vmax [3]: 735.50 µmol/min | Ki [3]: 90 µM and 89 µM | Alfa (α) [3]: 6.00

NC(=S)Nc1ccc(Br)cc1 [LaSMMed 123]
IC50 ([1]; IC50 ± SD): 493 ± 7 µM | inhibition at 2000 µM [1]: 86.18 ± 0.75% | Vmax [3]: 741.30 µmol/min | Ki [3]: 110 µM | Alfa (α) [3]: 9.75

NC(=S)Nc1ccc([N+](=O)[O-])cc1 [LaSMMed 124]
IC50 ([1]; IC50 ± SD): 464 ± 3 µM | inhibition at 2000 µM [1]: 88.3 ± 0.26% | Vmax [3]: 733.50 µmol/min | Ki [3]: 130 µM | Alfa (α) [3]: 6.13

COc1ccc(NC(N)=S)cc1 [LaSMMed 125]
IC50 ([1]; IC50 ± SD): 510 ± 19 µM | inhibition at 2000 µM [1]: 84% | %I ± SD (inhibitory percentage against CEU) [1]: 84.56 ± 1.23^b % | Vmax [3]: 737.50 µmol/min | Ki [3]: 80 µM | Inhibition type (mechanism of action) [3]: competitive inhibition; also recorded: competitive inhibitor

Cc1ccc(NC(N)=S)cc1 [LaSMMed 126]
IC50 ([1]; IC50 ± SD): 568 ± 22 µM | inhibition at 2000 µM [1]: 87.86 ± 0.48% | Vmax [3]: 732.30 µmol/min | Ki [3]: 100 µM | Inhibition type (mechanism of action) [3]: mixed-type inhibition | Alfa (α) [3]: 4.88

NC(N)=S [Thiourea]
IC50 ([1]; read-out: IC50 ± SD): 504 ± 25 µM | %I ± SD (inhibitory percentage against CEU) [1]: 84.12 ± 0.84^d % | %I ± SD (inhibitory percentage against CEU) ([1]; listed as thiourea): 84%

CCCCCCNC(=S)NC(=O)/C=C/c1ccccc1 [compound 40]
inhibition at 2000 µM [1]: 30 to 40%

Cc1ccc(NC(=S)NC(=O)/C=C/c2ccccc2)cc1 [compound 46]
inhibition at 2000 µM [1]: 13%

NC(=S)Nc1ccc([N+](=O)[O-])cc1 [compound 124]
Ki [3]: ~100 µM

Cc1ccc(NC(N)=S)cc1 [compound 126]
IC50 ([1]; IC50 ± SD): ~575 µM | Ki [3]: ~100 µM
